{"source": "ChEMBL document CHEMBL1141806", "about": "“Gloeolactone, a New Epoxy Lactone from a Blue-Green Alga” (J Nat Prod, 1998)", "key": {"Vibrio harveyi": {"tested_on": "Vibrio harveyi", "assay": "Antimicrobial activity against Vibrio harveyi", "assay_type": "functional, organism-based"}, "[1]": {"assay": "Toxicity against brine shrimp at 125 ug/mL", "assay_type": "organism-based", "details": "artemia, in vivo; read-out: Activity"}}, "note": "Activity calls are given as the source filed them. The rule behind the calls is not given here."}
{"compound": "CC/C=C\\C[C@H]1O[C@@H]1/C=C/C1CCCCCCCC(=O)O1", "note": "(some centres not stated) [GLOEOLACTONE]", "values": [{"measurement": "Activity", "setting": "Vibrio harveyi", "value": "inactive"}, {"measurement": "mortality at 125 ug/mL", "setting": "[1]", "value": 100, "unit": "%"}]}
